Series [1] addresses T1, α-glucosidase enzyme (Saccharomyces cerevisiae, UniProt P53341).
T1 construct: purchased Sigma-Aldrich, Munich, Germany
Put plainly: biochemical. The format is biochemical. As to conditions: for α-glucosidase inhibitory activity, in words: verbal rating in the SAR discussion. Here is the method:
The solution of the α-glucosidase enzyme (obtained from Saccharomyces cerevisiae (Sigma-Aldrich, Munich, Germany)) was prepared in phosphate buffer (pH 6.8, 100 mM). The synthesized compounds were dissolved in dimethyl sulfoxide (DMSO). […] Afterwards, 40 μL of 5 mM p-nitrophenyl-α-D-glucopyranoside (Sigma-Aldrich, Munich, Germany) was poured into each well and further incubated for an additional half-hour. […] Acarbose (Sigma-Aldrich, Munich, Germany) and DMSO were used as reference inhibitors and negative control, respectively. The tests were conducted in triplicate and percent inhibitions were calculated using the following formula: % Inhibition = [(A control − A sample)/A control] × 100 where ‘A’ stands for absorbance.
The IC50 values of the synthesized compounds and acarbose were also determined.

“Also recorded” adds a separate entry of the source. Structures can show the parent of a compound that is named as a salt. Where two headings read alike, the source gives them in different places.

T1 sequence (P53341 whole entry): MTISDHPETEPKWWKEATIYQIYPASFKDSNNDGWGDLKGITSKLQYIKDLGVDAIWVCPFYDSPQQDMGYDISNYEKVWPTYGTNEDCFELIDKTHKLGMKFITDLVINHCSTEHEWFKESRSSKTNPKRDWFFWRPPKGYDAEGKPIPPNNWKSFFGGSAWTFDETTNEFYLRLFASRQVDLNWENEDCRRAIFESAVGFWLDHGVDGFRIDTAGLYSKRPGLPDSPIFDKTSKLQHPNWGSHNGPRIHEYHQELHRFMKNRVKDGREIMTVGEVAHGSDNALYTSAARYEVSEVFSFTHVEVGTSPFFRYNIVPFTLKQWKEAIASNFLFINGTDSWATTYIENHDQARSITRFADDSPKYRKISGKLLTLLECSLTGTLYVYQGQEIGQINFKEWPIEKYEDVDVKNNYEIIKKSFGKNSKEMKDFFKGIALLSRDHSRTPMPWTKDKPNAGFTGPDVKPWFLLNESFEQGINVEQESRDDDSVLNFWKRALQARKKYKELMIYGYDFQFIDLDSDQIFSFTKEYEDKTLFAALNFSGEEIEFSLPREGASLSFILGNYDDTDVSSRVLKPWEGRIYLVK

By IC50 is commonly meant the concentration that gives 50% inhibition. For orientation: melting point means the temperature, or range, at which the solid turns liquid. Compound `Cc1ccccc1NC(=O)C[n+]1cn(Cc2ccccc2)c2ccccc21.[Br-]` [Compound 9i, 1-Benzyl-3-{2-oxo-2-(o-tolylamino)ethyl}-1H-benzo[d]imidazol-3-ium bromide] displayed a melting point of 162 to 163 °C. This compound also returned an IC50 in series [1] of 259.86 ± 0.043 µM.

`Cc1n(Cc2ccccc2)c2ccccc2[n+]1CC(=O)Nc1ccc([N+](=O)[O-])cc1` [Compound 10h, 1-Benzyl-2-methyl-3-[2-{(4-nitrophenyl)amino)}-2-oxoethyl]-1H-benzo[d]imidazol-3-ium bromide]: in series [1], the IC50 turned out to be 17 ± 0.067 µM and the “α-glucosidase inhibitory activity, in words” value was “promising α-glucosidase inhibitory results”.

`COc1ccccc1NC(=O)C[n+]1cn(Cc2ccccc2)c2ccccc21.[Br-]` [Compound 9l, 1-Benzyl-3-[2-{(2-methoxyphenyl)amino}-2-oxoethyl]-1H-benzo[d]imidazol-3-ium bromide] registered a melting point of 188 to 189 °C. In series [1], this compound showed an IC50 of 74.94 ± 0.028 µM.

Compound `O=C(C[n+]1cn(Cc2ccccc2)c2ccccc21)Nc1ccccc1Br.[Br-]` [Compound 9c, 1-Benzyl-3-[2-{(2-bromophenyl)amino}-2-oxoethyl]-1H-benzo[d]imidazol-3-ium bromide] showed a melting point of 192 to 194 °C. For the same compound, in series [1], the IC50 amounted to 70.01 ± 0.037 µM.

For the compound `Cc1cccc(NC(=O)C[n+]2cn(Cc3ccccc3)c3ccccc32)c1.[Br-]` [Compound 9j, 1-Benzyl-3-{2-oxo-2-(m-tolylamino)ethyl}-1H-benzo[d]imidazol-3-ium bromide], the melting point lay in the range of 132 to 134 °C. This compound also displayed an IC50 in series [1] of 200.14 ± 0.039 µM.

`Cc1n(Cc2ccccc2)c2ccccc2[n+]1CC(=O)Nc1ccc([N+](=O)[O-])cc1` (as salt: bromide) [Compound 10h, 1-Benzyl-2-methyl-3-[2-{(4-nitrophenyl)amino)}-2-oxoethyl]-1H-benzo[d]imidazol-3-ium bromide]: the melting point is 222 to 224 °C.

In turn, `O=C(C[n+]1cn(Cc2ccccc2)c2ccccc21)Nc1cccc([N+](=O)[O-])c1.[Br-]` [Compound 9g, 1-Benzyl-3-[2-{(3-nitrophenyl)amino}-2-oxoethyl]-1H-benzo[d]imidazol-3-ium bromide] came in with a melting point of 162 to 163 °C. This compound also yielded an IC50 in series [1] of 215.73 ± 0.112 µM.

As to `Cc1cccc(NC(=O)C[n+]2c(C)n(Cc3ccccc3)c3ccccc32)c1.[Br-]` [Compound 10j, 1-Benzyl-2-methyl-3-{2-oxo-2-(m-tolylamino)ethyl}-1H-benzo[d]imidazol-3-ium bromide], the melting point was in the range of 192 to 194 °C. Moreover, in series [1], the IC50 is 60 ± 0.041 µM and the “α-glucosidase inhibitory activity, in words” value was “poor inhibitors”.

Compound `Cc1ccccc1NC(=O)C[n+]1c(C)n(Cc2ccccc2)c2ccccc21.[Br-]` [Compound 10i, 1-Benzyl-2-methyl-3-{2-oxo-2-(o-tolylamino)ethyl}-1H-benzo[d]imidazol-3-ium bromide] showed a melting point of 168 to 170 °C. For the same compound, in series [1], the IC50 is 100 ± 0.048 µM and the “α-glucosidase inhibitory activity, in words” value is reported as “poor inhibitors; also recorded: lowest α-glucosidase inhibitory results in their respective series”.

In the case of `Cc1ccc(NC(=O)C[n+]2cn(Cc3ccccc3)c3ccccc32)cc1.[Br-]` [Compound 9k, 1-Benzyl-3-{2-oxo-2-(p-tolylamino)ethyl}-1H-benzo[d]imidazol-3-ium bromide], the melting point was 148 to 149 °C. Moreover, in series [1], the IC50 worked out at 201.13 ± 0.105 µM.

Regarding `Cc1ccc(NC(=O)C[n+]2c(C)n(Cc3ccccc3)c3ccccc32)cc1.[Br-]` [Compound 10k, 1-Benzyl-2-methyl-3-{2-oxo-2-(p-tolylamino)ethyl}-1H-benzo[d]imidazol-3-ium bromide], the melting point was 220 to 221 °C. Further, in series [1], the IC50 turned out to be 32.27 ± 0.05 µM and the “α-glucosidase inhibitory activity, in words” value is recorded as “moderately active”.

Consider `Cc1n(Cc2ccccc2)c2ccccc2[n+]1CC(=O)Nc1cccc([N+](=O)[O-])c1.[Br-]` [Compound 10g, 1-Benzyl-2-methyl-3-[2-{(3-nitrophenyl)amino}-2-oxoethyl]-1H-benzo[d]imidazol-3-ium bromide], for which the melting point is 180 to 182 °C. Also, in series [1], it took 19 ± 0.086 µM to reach half-maximal inhibition (IC50) and the “α-glucosidase inhibitory activity, in words” value is reported as “promising α-glucosidase inhibitory results”.

`O=C(C[n+]1cn(Cc2ccccc2)c2ccccc21)Nc1cccc(Br)c1.[Br-]` [Compound 9d, 1-Benzyl-3-[2-{(3-bromophenyl)amino}-2-oxoethyl]-1H-benzo[d]imidazol-3-ium bromide]: the melting point fell in the range of 176 to 178 °C. The same compound displayed an IC50 in series [1] of 171.11 ± 0.089 µM.

With `Cc1n(Cc2ccccc2)c2ccccc2[n+]1CC(=O)Nc1ccccc1Br` [Compound 10c, 1-Benzyl-3-[2-{(2-bromophenyl)amino)}-2-oxoethyl]-2-methyl-1H-benzo[d]imidazol-3-ium bromide], in series [1], the IC50 is 46 ± 0.106 µM and the “α-glucosidase inhibitory activity, in words” value is reported as “higher activity than acarbose”.

With `Cc1n(Cc2ccccc2)c2ccccc2[n+]1CC(=O)Nc1ccccc1Br` (as salt: bromide) [Compound 10c, 1-Benzyl-3-[2-{(2-bromophenyl)amino)}-2-oxoethyl]-2-methyl-1H-benzo[d]imidazol-3-ium bromide], the melting point worked out at 252 °C.

`O=C(C[n+]1cn(Cc2ccccc2)c2ccccc21)Nc1ccccc1[N+](=O)[O-].[Br-]` [Compound 9f, 1-Benzyl-3-[2-{(2-nitrophenyl)amino}-2-oxoethyl]-1H-benzo[d]imidazol-3-ium bromide] came in with a melting point of 142 to 143 °C. In series [1], half-maximal inhibition (IC50) was put at 241 ± 0.027 µM.

With `COc1ccccc1NC(=O)C[n+]1c(C)n(Cc2ccccc2)c2ccccc21.[Br-]` [Compound 10l, 1-Benzyl-3-[2-{(2-methoxyphenyl)amino}-2-oxoethyl]-2-methyl-1H-benzo[d]imidazol-3-ium bromide], the melting point fell in the range of 244 to 246 °C. For the same compound, in series [1], the IC50 amounted to 25 ± 0.011 µM.

The compound `Cc1n(Cc2ccccc2)c2ccccc2[n+]1CC(=O)Nc1ccc(Cl)cc1.[Br-]` [Compound 10b, 1-Benzyl-3-[2-{(4-chlorophenyl)amino}-2-oxoethyl]-2-methyl-1H-benzo[d]imidazol-3-ium bromide] came in with a melting point of 178 to 180 °C. In series [1], the IC50 was 60 ± 0.041 µM.

In turn, `O=C(C[n+]1cn(Cc2ccccc2)c2ccccc21)Nc1cccc(Cl)c1.[Br-]` [Compound 9a, 1-Benzyl-3-[2-{(3-chlorophenyl)amino}-2-oxoethyl]-1H-benzo[d]imidazol-3-ium bromide] yielded a melting point of 205 to 207 °C. In addition, the IC50 in series [1] stood at 150.7 ± 0.045 µM.

`Cc1n(Cc2ccccc2)c2ccccc2[n+]1CC(=O)Nc1ccccc1[N+](=O)[O-].[Br-]` [Compound 10f, 1-Benzyl-2-methyl-3-[2-{(2-nitrophenyl)amino}-2-oxoethyl]-1H-benzo[d]imidazol-3-ium bromide]: in series [1], the IC50 was 60 ± 0.025 µM and the “α-glucosidase inhibitory activity, in words” value is “considerable decline in activity”.

The compound `O=C(C[n+]1cn(Cc2ccccc2)c2ccccc21)Nc1ccc([N+](=O)[O-])cc1.[Br-]` [Compound 9h, 1-Benzyl-3-[2{(4-nitrophenyl)amino}-2-oxoethyl]-1H-benzo[d]imidazol-3-ium bromide] came in with a melting point of 152 to 153 °C.

In turn, `Cc1n(Cc2ccccc2)c2ccccc2[n+]1CC(=O)Nc1ccc(Br)cc1.[Br-]` [Compound 10e, 1-Benzyl-3-[2-{(4-bromophenyl)amino}-2-oxoethyl]-2-methyl-1H-benzo[d]imidazol-3-ium bromide] returned a melting point of 212 °C. In series [1], the IC50 was determined as 30 ± 0.049 µM and the “α-glucosidase inhibitory activity, in words” value is “higher activity than acarbose”.

The compound `COc1ccc(NC(=O)C[n+]2c(C)n(Cc3ccccc3)c3ccccc32)cc1.[Br-]` [Compound 10m, 1-Benzyl-3-[2-{(4-methoxyphenyl)amino}-2-oxoethyl]-2-methyl-1H-benzo[d]imidazole-3-ium bromide] gave a melting point of 235 to 238 °C. In addition, in series [1], the IC50 was 16.16 ± 0.026 µM.

Consider `O=C(C[n+]1cn(Cc2ccccc2)c2ccccc21)Nc1ccc(Br)cc1` [Compound 9e, 1-Benzyl-3-[2-{(4-bromophenyl)amino)}-2-oxoethyl]-1H-benzo[d]imidazol-3-ium bromide], for which the IC50 in series [1] (S. cerevisiae enzyme 0.5 U/mL, phosphate buffer pH 6.8, 37 °C, triplicate, read-out: IC50 α-glucosidase inhibition) was found to be 198 ± 0.103 µM.

`O=C(C[n+]1cn(Cc2ccccc2)c2ccccc21)Nc1ccc(Cl)cc1.[Br-]` [Compound 9b, 1-Benzyl-3-[2-{(4-chlorophenyl)amino}-2-oxoethyl]-1H-benzo[d]imidazol-3-ium bromide]: the melting point was in the range of 197 to 198 °C. Half-maximal inhibition in series [1] (IC50) was put at 169.16 ± 0.023 µM.

In the case of `Cc1n(Cc2ccccc2)c2ccccc2[n+]1CC(=O)Nc1cccc(Cl)c1.[Br-]` [Compound 10a, 1-Benzyl-3-[2-{(3-chlorophenyl)amino}-2-oxoethyl]-2-methyl-1H-benzo[d]imidazol-3-ium bromide], the melting point was in the range of 210 to 213 °C. For the same compound, it took 22 ± 0.04 µM to reach half-maximal inhibition in series [1] (IC50).

`Cc1n(Cc2ccccc2)c2ccccc2[n+]1CC(=O)Nc1cccc(Br)c1.[Br-]` [Compound 10d, 1-Benzyl-3-[2-{(3-bromophenyl)amino}-2-oxoethyl]-2-methyl-1H-benzo[d]imidazol-3-ium bromide] returned a melting point of 242 °C. Also, in series [1], the IC50 was 14 ± 0.013 µM and the “α-glucosidase inhibitory activity, in words” value is on record as “higher activity than acarbose”. The “α-glucosidase inhibitory potential, fold higher than the standard drug acarbose” value in series [1] (from IC50 values versus acarbose) is recorded as 4 fold.

The values are drawn from PMC8400806, “Discovery of Amide-Functionalized Benzimidazolium Salts as Potent α-Glucosidase Inhibitors” (Molecules, 2021).
